According to patent US20100056623A1, “FUMAGILLOL DERIVATIVES OR METHOD FOR PREPARATION OF FUMAGILLOL DERIVATIVES, AND PHARMACEUTICAL COMPOSITIONS COMPRISING THE SAME” (CHONG KUN DANG PHARMACEUTICAL CORP., priority 2005, published 2010):

Legend:
L5178Y lymphoma = test: Inhibiting activity on cell proliferation, MTT analysis (L5178Y); type: cell-based, murine; details: Mus musculus, 72 h, L5178Y lymphoma cells, 3 days with drug
Protocol: (§1) In order to compare the safety index (SI) of CPAE (calf pulmonary artery endothelial cell) with that of HUVEC (human umbilical vein endothelial cell), L5178Y lymphoma that was isolated from murine thymus was used. The safety index was defined as IC50 ratio of L5178Y against CPAE (IC50L5178Y/IC50CPAE). All cell lines, which had been kept in liquid nitrogen tank, were used after being thawed and subcultured 2˜3 times in T-flask. CPAE, HUVEC and L5178Y were cultured in MEM culture medium (20% FBS, 50˜100 μg/ml ECGS, 0.15% baking soda, 0.05 mg/ml gentamicin), M199 culture medium (20% FBS, 0.22% baking soda, 100 μg/ml heparin, 3 ng/ml bFGF, 0.05 mg/ml gentamicin) and RPMI 1640 culture medium (10% FBS, 0.2% baking soda, 0.05 mg/ml gentamicin), respectively, under the condition of 37° C. and 5% CO2.
(§2) The drug was prepared by being gradationally diluted to two or ten times by using PBS, 20 μl of the solution was added to each well of 96 well plate in triplicate. The cell, which is being incubated, was treated with trypsin to give cell suspension. The number of cell thereafter was counted. And 180 μl of the solution was inoculated to each well and cultured.
The tumor cell was cultured with drugs for 3 days and then 50 μl of MTT (3-(4,5-dimethylthiazole-2-yl)-2,5-diphenyl tetrazolium bromide, Sigma Chemical Co.) solution (2.5 mg/ml in PBS) was added thereto. And it was further cultured for 4 hours at 37° C. Culture medium was removed carefully. And after dissolving formazan crystal by adding 150 μl of DMSO, the absorbance at 570 nm was determined.

[1] = Chemical stability test (HPLC purity)
Protocol: Each compound of the present invention was kept in an air-tight vessel for 1 month at 40±2° C. and 75±5% of relative humidity. Thereafter the HPLC purity test was executed.
25 mL of the solution was precisely taken, and poured into 100 mL volumetric flask. Acetonitrile/20 mM ammonium acetate aqueous solution (50:50) was added thereto to be the total volume of 100 ml. The solution was filtrated, and the filtrate was used as a test liquid.
(2) Operational Condition of Instrument. • Column: Kromasil®C18 (UG 100 Å, 5 μm, 4.6 mm Φ×250 mm) • Column temperature: 30° C. • Mobil phase: 20 mM ammonium acetate (pH 4.2) buffer:acetonitrile (55:45) • Injection volume: 20 μL • Flow rate: 1.2 mL/min • Detector: UV light-absorption Spectrophotometer (detection wavelength: 306 nm)

[2] = test system: CPAE (calf pulmonary artery endothelial cell); test: Inhibiting activity on cell proliferation, SRB analysis (CPAE); type: cell-based; details: for IC50: Bos taurus, Endothelial cell, 72 h, CPAE cells, 3 days with drug, SRB, read-out: IC50 (nM) CAPE; for Selectivity Index (L5178Y/CAPE): IC50 L5178Y / IC50 CPAE
Protocol: as §1, §2
The cell was cultured with drugs for 3 days and then 50 μl of 50% TCA was added thereto (final concentration 10%). Subsequently the cell was fixed by being left alone at 4° C. for 1 hour. The well was washed 4 times by distilled water and then dried. After that 100 μl of SRB (Sulforhodamine B, Sigma Chemical Co.) solution (0.4% w/v in 1% acetic acid) was added thereto and then it was left alone at ordinary temperature for 30 minutes. Thereafter the well was washed 4 times by 1% acetic acid and dried. And then after adding 200 μl of 10 mM tris buffer, the absorbance at 570 nm was measured by automatic microplate reader (Model: Elx 808, Bio-Tek Instrument, INC). The viability was calculated from the ratio of the absorbance of the control to which drugs were not added and the well to which drugs were added.

Solubility test = type: physicochemical; details: ordinary temperature
Protocol: To a constant amount (400 mg) of each compounds of present invention, a constant amount of demineralized water, methanol and ethanol were added separately, and the solution was stirred at ordinary temperature.

[3] = 1 month at 40±2° C., 75±5% relative humidity
[4] = HPLC, 1 month at 40±2° C., 75±5% relative humidity, air-tight vessel

Row | Structure (SMILES) | IC50 (L5178Y lymphoma) | IC50 [2] | Selectivity Index (L5178Y/CAPE) [2] | further results
1 | CO[C@@H]1[C@H](OC(=O)/C=C/c2ccc(OCCOCCO)cc2)CC[C@]2(CO2)[C@H]1[C@@]1(C)O[C@@H]1CC=C(C)C [Example 12, O-(4-(2-hydroxyethoxyethoxy)cinnamoyl)fumagillol] | 20500 nM | 0.019 nM | 1.08 × 10^6 | change of purity (in words) [1, 3]: hardly showed a change of purity; chemical stability compared to known compounds [1, 3]: more excellent chemical stability than TNP-470, CKD-732 and CKD-731; 1 month Other peaks (%) [1, 4]: 0.6%; 1 month Parent peak (%) [1, 4]: 99.4%; Initial Other peaks (%) ([1]; HPLC, initial): 0.5%; Initial Parent peak (%) ([1]; HPLC, initial): 99.5%; change of purity (%) ([1]; initial vs 1 month at 40±2° C., 75±5% relative humidity): 0.1%; The amount of solvent to dissolve 1 g of the compounds (ml), demineralized water (Solubility test; demineralized water): 126 mL; The amount of solvent to dissolve 1 g of the compounds (ml), ethanol (Solubility test; ethanol): 51 mL; The amount of solvent to dissolve 1 g of the compounds (ml), methanol (Solubility test; methanol): 35 mL
2 | COc1ccc(/C=C/C(=O)O[C@@H]2CC[C@]3(CO3)[C@@H]([C@@]3(C)O[C@@H]3CC=C(C)C)[C@@H]2OC)cc1OCCOCCO [Example 15, O-(3-(2-hydroxyethoxyethoxy)-4-methoxycinnamoyl)fumagillol] | 41900 nM | 0.4 nM | 1.05 × 10^5 | –
3 | COc1cc(/C=C/C(=O)O[C@@H]2CC[C@]3(CO3)[C@@H]([C@@]3(C)O[C@@H]3CC=C(C)C)[C@@H]2OC)ccc1OCCOCCO [Example 14, O-(4-(2-hydroxyethoxyethoxy)-3-methoxycinnamoyl)fumagillol] | 50100 nM | 0.26 nM | 1.93 × 10^5 | –
4 | CO[C@@H]1[C@H](OC(=O)/C=C/c2ccc(OCCCO)cc2)CC[C@]2(CO2)[C@H]1[C@@]1(C)O[C@@H]1CC=C(C)C [Example 19, O-(4-(3-hydroxypropoxy)cinnamoyl)fumagillol] | 24900 nM | 0.017 nM | 1.46 × 10^6 | –
5 | COc1cc(/C=C/C(=O)O[C@@H]2CC[C@]3(CO3)[C@@H]([C@@]3(C)O[C@@H]3CC=C(C)C)[C@@H]2OC)cc(OC)c1OCCOCCO [Example 13, O-(3,5-dimethoxy-4-(2-hydroxyethoxyethoxy)cinnamoyl)fumagillol] | 34600 nM | 0.17 nM | 2.03 × 10^5 | –
6 | CO[C@@H]1[C@H](OC(=O)/C=C/c2ccc(OCCCCO)c(C)c2)CC[C@]2(CO2)[C@H]1[C@@]1(C)O[C@@H]1CC=C(C)C [Example 22, O-(3-methyl-4-(4-hydroxybutoxy)cinnamoyl)fumagillol] | 32500 nM | 0.048 nM | 6.76 × 10^5 | –
7 | CO[C@@H]1[C@H](OC(=O)/C=C/c2ccc(OCCCO)c(C#N)c2)CC[C@]2(CO2)[C@H]1[C@@]1(C)O[C@@H]1CC=C(C)C [Example 20, O-(3-cyano-4-(3-hydroxypropoxy)cinnamoyl)fumagillol] | 20500 nM | 0.046 nM | 4.45 × 10^5 | –
8 | COc1cc(/C=C/C(=O)O[C@@H]2CC[C@]3(CO3)[C@@H]([C@@]3(C)O[C@@H]3CC=C(C)C)[C@@H]2OC)ccc1Oc1ccc(CO)cc1 [Example 10, O-(4-(4-hydroxymethylphenoxy)-3-methoxycinnamoyl)fumagillol] | 42500 nM | 0.711 nM | 6.00 × 10^4 | –
